Measurements as given in US20020040052A1, “Method for neurite outgrowth” (priority 2000, published 2002).

Test system: PC12 cells derived from adrenal medulla pheochromocytoma of rats
Assay: Neurite extension of PC12 cells: percentage of cells with extended neurites after culturing for 3 days
Assay type: cell-based, rat
Description: Next, PC12 cells derived from adrenal medulla pheochromocytoma of rats were seeded in a serum-free DMEM/F12 medium containing 5 μg/ml of transferrin, 5 μg/ml of insulin and 20 nM of progesterone (GIBCO Corp., hereinafter, referred to as “DMEM-TIP medium”) at 2.0×10^4 cells/well (flat-bottomed 24 well collagen coated plate, manufactured by IWAKI). Then, the cells were cultured overnight at 37° C. under 5% CO2. […]
After culturing for 3 days, for each well of the plate, microscopic observation was conducted with respect to the cells at 200 times magnification. The percentage of the cells with extended neurites (cells that have neurites longer than their diameter) to the total of more than 200 cells was calculated.

Row | SMILES | Ratio of the cells with extended neurites (10 μM in DMEM-TIP medium) | Relative value of the ratio of the cells with extended neurites to control (Com. Ex. 1) (10 μM in DMEM-TIP medium) | Ratio of the cells with extended neurites (50 μM in DMEM-TIP medium) | Relative value of the ratio of the cells with extended neurites to control (Com. Ex. 1) (50 μM in DMEM-TIP medium) | Ratio of the cells with extended neurites (100 μM in DMEM-TIP medium) | Relative value of the ratio of the cells with extended neurites to control (Com. Ex. 1) (100 μM in DMEM-TIP medium)
1 | COc1ccc(-c2cc(=O)c3c(OC)c(OC)c(OC)c(OC)c3o2)cc1OC [nobiletin] | 8.7% | 2.5 | 16.6% | 4.7 | 42.8% | 12.2
2 | COc1ccc(-c2cc(=O)c3c(OC)c(OC)c(OC)c(OC)c3o2)cc1 [tangeretin] | 4.8% | 1.4 |  |  | 12.2% | 3.5
